Experimental data from patent publication US20230212210A1 (priority 2020, published 2023).

Legend:
[1] = target: T1, DC-SIGN (Homo sapiens, UniProt Q9NNX6); test: Binding of DC-SIGN to an HMO chip; settings: Cy3-labelled DC-SIGN
T1 sequence (Q9NNX6 1-404): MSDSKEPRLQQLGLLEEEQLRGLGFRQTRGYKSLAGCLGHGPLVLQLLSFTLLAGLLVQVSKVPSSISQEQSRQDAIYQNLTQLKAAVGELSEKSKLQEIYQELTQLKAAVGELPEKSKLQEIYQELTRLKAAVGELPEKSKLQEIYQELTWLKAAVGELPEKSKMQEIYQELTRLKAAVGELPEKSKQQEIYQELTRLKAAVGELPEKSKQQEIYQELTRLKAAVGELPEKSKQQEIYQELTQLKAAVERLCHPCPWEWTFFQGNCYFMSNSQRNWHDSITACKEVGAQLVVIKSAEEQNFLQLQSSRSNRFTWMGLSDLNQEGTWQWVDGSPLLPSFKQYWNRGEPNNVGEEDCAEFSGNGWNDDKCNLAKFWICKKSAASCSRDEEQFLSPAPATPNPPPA

[2] = target: S1 subunit of SARS-CoV-2 (Severe acute respiratory syndrome coronavirus 2, UniProt P0DTC2)
[3] = target: S1 subunit (the S1 protein) of SARS-CoV-2 binding to 16HBE cells (bronchial epithelial cells) (Severe acute respiratory syndrome coronavirus 2, UniProt P0DTC2); format: cell-based; settings: 40 μM chondroitin sulfate, 20 μM fucoidan, 1 h pre-incubation; confocal microscopy
[4] = target: S1 subunit (the S1 protein) of SARS-CoV-2 binding to lung epithelial cells (BEAS-2B cells) (Severe acute respiratory syndrome coronavirus 2, UniProt P0DTC2); format: cell-based; settings: fixed cells pre-incubated with sugar chain 1 h, S1 subunit 1 μM
[5] = target: S1 subunit (the S1 protein) of SARS-CoV-2 binding to African green monkey kidney cells (Vero-E6 cells) (Severe acute respiratory syndrome coronavirus 2, UniProt P0DTC2); format: cell-based; settings: fixed cells pre-incubated with sugar chain 1 h, S1 subunit 1 μM
[6] = test system: SARS-CoV-2 pseudovirus in Vero-E6 cells; format: cell-based

CC(=O)N[C@H]1[C@H](O[C@H]2[C@@H](O)[C@@H](CO)O[C@@H](O[C@H]3[C@H](O)[C@@H](O)C(O)O[C@@H]3CO)[C@@H]2O)O[C@H](CO)[C@@H](O[C@@H]2O[C@@H](C)[C@@H](O)[C@@H](O)[C@@H]2O)[C@@H]1O[C@@H]1O[C@H](CO)[C@H](O)[C@H](O)[C@H]1O (stereo partly drawn) [HMO13, Galβ1-3(Fucα1-4)GlcNAcβ1-3Galβ1-4Glc]
Binding of DC-SIGN to an HMO chip, RFU [1]: 1896.5 RFU

CC(=O)N[C@H]1[C@H](O[C@H]2[C@@H](O)[C@@H](CO)O[C@@H](O[C@H]3[C@H](O)[C@@H](O)C(O)O[C@@H]3CO)[C@@H]2O)O[C@H](CO)[C@@H](O[C@@H]2O[C@H](CO)[C@H](O)[C@H](O)[C@H]2O)[C@@H]1O[C@@H]1O[C@@H](C)[C@@H](O)[C@@H](O)[C@@H]1O (stereo partly drawn) [HMO14, Galβ1-4(Fucα1-3)GlcNAcβ1-3Galβ1-4Glc]
Binding of DC-SIGN to an HMO chip, RFU [1]: 2125.34 RFU

CC(=O)N[C@@H]1[C@@H](O[C@@H]2O[C@H](CO)[C@H](O)[C@H](O)[C@H]2O)[C@@H](O)[C@@H](CO[C@@H]2O[C@H](CO)[C@@H](O)[C@H](O)[C@H]2NC(C)=O)O[C@@H]1O [O23, GlcNAcβ1-6(Galβ1-3)GalNAcα]
Binding of the S1 subunit of a virus to an O-sugar chain chip, RFU [2]: 69.84 RFU

CC(=O)N[C@@H]1[C@@H](O[C@@H]2O[C@H](CO)[C@@H](O[C@@H]3O[C@H](CO)[C@H](O)[C@H](O)[C@H]3O[C@@H]3O[C@@H](C)[C@@H](O)[C@@H](O)[C@@H]3O)[C@H](O[C@@H]3O[C@@H](C)[C@@H](O)[C@@H](O)[C@@H]3O)[C@H]2NC(C)=O)[C@@H](O)[C@@H](CO)O[C@@H]1O [O33, Fucα1-2Galβ1-4(Fucα1-3)GlcNAcβ1-3GalNAcα]
Binding of the S1 subunit of a virus to an O-sugar chain chip, RFU [2]: 6320.17 RFU

CC(=O)N[C@@H]1[C@@H](O[C@@H]2O[C@H](CO)[C@@H](O)[C@H](O)[C@H]2NC(C)=O)[C@@H](O)[C@@H](CO[C@@H]2O[C@H](CO)[C@@H](O)[C@H](O)[C@H]2NC(C)=O)O[C@@H]1O [O39, GlcNAcβ1-6(GlcNAcβ1-3)GalNAcα]
Binding of the S1 subunit of a virus to an O-sugar chain chip, RFU [2]: 136.5 RFU

Fucα1-2Gal 1-4GlcNAcβ1-3Galβ1-4Glc [HMO15]
Binding of DC-SIGN to an HMO chip, RFU [1]: 1683.84 RFU

Fucα1-2Galβ1-4(Fucα1-3)GlcNAcβ1-3Gal 1-4Glc [HMO16]
Binding of DC-SIGN to an HMO chip, RFU [1]: 2537.92 RFU

Fucα1-2Galβ1-4(Fucα1-3)GlcNAcβ1-3Galβ1-3GalNAcα [O20]
Binding of the S1 subunit of a virus to an O-sugar chain chip, RFU [2]: 304.5 RFU

Fucα1-2Galβ1-4(Fucα1-3)GlcNAcβ1-6(Fucα1-2Galβ1-4(Fucα1-3)GlcNAcβ1-3)Galβ1-4Glc [HMO46]
Binding of DC-SIGN to an HMO chip, RFU [1]: 2425.92 RFU

Fucα1-2Galβ1-4Glc [HMO3]
Binding of DC-SIGN to an HMO chip, RFU [1]: 2930.75 RFU

Fucα1-2Galβ1-4GlcNAcβ1-6(Fucα1-2Galβ1-4GlcNAcβ1-3)Galβ1-4Glc [HMO45]
Binding of DC-SIGN to an HMO chip, RFU [1]: 838.42 RFU

Galα1-3(Fucα1-2)Galβ1-4GlcNAcβ1-3NAcα [O36]
Binding of the S1 subunit of a virus to an O-sugar chain chip, RFU [2]: 320.5 RFU

Galβ1-4(Fucα1-3)Glc [HMO2]
Binding of DC-SIGN to an HMO chip, RFU [1]: 2329.09 RFU

Galβ1-4(Fucα1-3)GlcNAcβ1-6(Galβ1-4GlcNAcβ1-3)Gal 1-4Glc [HMO43]
Binding of DC-SIGN to an HMO chip, RFU [1]: 1196.59 RFU

Galβ1-4(Fucα1-3)GlcNAcβ1-6(GlcNAcβ1-3)Gal 1-4Glc [HMO36]
Binding of DC-SIGN to an HMO chip, RFU [1]: 1707.42 RFU

Galβ1-4GlcNAcβ1-6(Fucα1-2Gal 1-4GlcNAcβ1-3)Gal 1-4Glc [HMO40]
Binding of DC-SIGN to an HMO chip, RFU [1]: 801.5 RFU

GlcNAcβ1-6[Fucα1-2Galβ1-4(Fucα1-3)GlcNAcβ1-3]Galβ1-4Glc [HMO33]
Binding of DC-SIGN to an HMO chip, RFU [1]: 1913.59 RFU

GlcNAcβ1-6[Galβ1-4(Fucα1-3)GlcNAcβ1-3]Galβ1-4Glc [HMO31]
Binding of DC-SIGN to an HMO chip, RFU [1]: 2175.59 RFU

Neu5Acα2-3Galβ1-4GlcNAcβ1-3GalNAcα [O29]
Binding of the S1 subunit of a virus to an O-sugar chain chip, RFU [2]: 2866.34 RFU

Neu5Acα2-6Galβ1-4GlcNAcβ1-3(Neu5Acα2-6Galβ1-3GlcNAcβ1-6)GalNAcα [O83]
Binding of the S1 subunit of a virus to an O-sugar chain chip, RFU [2]: 6012.67 RFU

fucoidan
blocking of the binding of the S1 protein to bronchial epithelial cells (16HBE) [3]: successfully block | blocking of the binding of the S1 subunit to BEAS-2B cells [4]: can block | blocking of the binding of the S1 subunit to Vero-E6 cells [5]: can block | inhibition activity to pseudovirus invasion and infection of the cells [6]: exhibit an inhibition activity

nadroparin calcium
blocking of the binding of the S1 subunit to BEAS-2B cells [4]: can block | blocking of the binding of the S1 subunit to Vero-E6 cells [5]: can block | inhibition activity to pseudovirus invasion and infection of the cells [6]: exhibit an inhibition activity

sodium chondroitin sulfate
blocking of the binding of the S1 protein to bronchial epithelial cells (16HBE) [3]: successfully block

sodium heparin sulfate
blocking of the binding of the S1 subunit to BEAS-2B cells [4]: can block | blocking of the binding of the S1 subunit to Vero-E6 cells [5]: can block
